Results as given in PubChem BioAssay AID2060891 (Molecular Pharmacology Branch, DTP, NCI, 2025).
Blank lines part the entries; values can stand above or below the compound they belong to.

Test system: K98450-129-R-PDC complex spheroid growth, percent test/control
Assay: Anticancer human tumor K98450-129-R-PDC patient-derived colon adenocarcinoma cell line growth inhibition [RAS]
Details: for IC50: curve of first compound; for viability, T/C: stronger effect = lower value
Method in brief: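 Multi-cell-type spheroids: tumor cells plus HUVEC endothelial cells and mesenchymal stem cells. RAS-pathway inhibitors were combined with targeted agents, each dosed in half-log steps down from clinical Cmax, or from 10 microM when Cmax was unknown.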
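Also: spheroids exposed to agents for seven days before the viability readout.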
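For viability, T/C in this document: luminescence used as a proxy for viable cell amount.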

- IC50 (second compound 0.000949 µM): 16.9 nM
- IC50 (second compound 0.003 µM): 2.54 nM
- IC50 (second compound 0.00949 µM): < 0.949 nM
- IC50 (second compound 0.03 µM): < 0.949 nM
- IC50 (second compound 0.0949 µM): < 0.949 nM
- IC50 (second compound 0.3 µM): < 0.949 nM
SMILES: CCc1c2c(nc3ccc(O)cc13)-c1cc3c(c(=O)n1C2)COC(=O)[C@]3(O)CC + CCn1c(-c2cccnc2C(C)OC)c2c3cc(ccc31)N1CCOC(CC(NC(=O)C(C(C)C)N(C)C(=O)C3(F)CCN(C(=O)C#CC(C)(C)N(C)C)CC3)C(=O)N3CCCC(N3)C(=O)OCC(C)(C)C2)C1
- viability, T/C (second compound 0.000949 µM, first compound 0.000949 µM): 71.1%
- viability, T/C (second compound 0.000949 µM, first compound 0.003 µM): 64.6%
- viability, T/C (second compound 0.000949 µM, first compound 0.00949 µM): 60.9%
- viability, T/C (second compound 0.000949 µM, first compound 0.03 µM): 39.8%
- viability, T/C (second compound 0.000949 µM, first compound 0.0949 µM): 30.2%
- viability, T/C (second compound 0.000949 µM, first compound 0.3 µM): 25.4%
- viability, T/C (second compound 0.003 µM, first compound 0.000949 µM): 58.1%
- viability, T/C (second compound 0.003 µM, first compound 0.003 µM): 48.9%
- viability, T/C (second compound 0.003 µM, first compound 0.00949 µM): 38.9%
- viability, T/C (second compound 0.003 µM, first compound 0.03 µM): 30.9%
- viability, T/C (second compound 0.003 µM, first compound 0.0949 µM): 24.3%
- viability, T/C (second compound 0.003 µM, first compound 0.3 µM): 15.8%
- viability, T/C (second compound 0.00949 µM, first compound 0.000949 µM): 44.3%
- viability, T/C (second compound 0.00949 µM, first compound 0.003 µM): 36.2%
- viability, T/C (second compound 0.00949 µM, first compound 0.00949 µM): 32.8%
- viability, T/C (second compound 0.00949 µM, first compound 0.03 µM): 22.7%
- viability, T/C (second compound 0.00949 µM, first compound 0.0949 µM): 16.9%
- viability, T/C (second compound 0.00949 µM, first compound 0.3 µM): 14%
- viability, T/C (second compound 0.03 µM, first compound 0.000949 µM): 32.8%
- viability, T/C (second compound 0.03 µM, first compound 0.003 µM): 40.1%
- viability, T/C (second compound 0.03 µM, first compound 0.00949 µM): 25.6%
- viability, T/C (second compound 0.03 µM, first compound 0.03 µM): 24.7%
- viability, T/C (second compound 0.03 µM, first compound 0.0949 µM): 19.5%
- viability, T/C (second compound 0.03 µM, first compound 0.3 µM): 11.6%
- viability, T/C (second compound 0.0949 µM, first compound 0.000949 µM): 35.1%
- viability, T/C (second compound 0.0949 µM, first compound 0.003 µM): 33.8%
- viability, T/C (second compound 0.0949 µM, first compound 0.00949 µM): 27.9%
- viability, T/C (second compound 0.0949 µM, first compound 0.03 µM): 22.3%
- viability, T/C (second compound 0.0949 µM, first compound 0.0949 µM): 20%
- viability, T/C (second compound 0.0949 µM, first compound 0.3 µM): 11.5%
- viability, T/C (second compound 0.3 µM, first compound 0.000949 µM): 36%
- viability, T/C (second compound 0.3 µM, first compound 0.003 µM): 32.7%
- viability, T/C (second compound 0.3 µM, first compound 0.00949 µM): 28.5%
- viability, T/C (second compound 0.3 µM, first compound 0.03 µM): 18.3%
- viability, T/C (second compound 0.3 µM, first compound 0.0949 µM): 15.4%
- viability, T/C (second compound 0.3 µM, first compound 0.3 µM): 10.7%

- IC50 (second compound 0.000949 µM): 18.4 nM
- IC50 (second compound 0.003 µM): 9.33 nM
- IC50 (second compound 0.00949 µM): < 3.16 nM
- IC50 (second compound 0.03 µM): < 3.16 nM
- IC50 (second compound 0.0949 µM): < 3.16 nM
- IC50 (second compound 0.3 µM): < 3.16 nM
SMILES: Nc1ccn(C2OC(CO)C(O)C2(F)F)c(=O)n1 (centres undefined) + CCn1c(-c2cccnc2C(C)OC)c2c3cc(ccc31)N1CCOC(CC(NC(=O)C(C(C)C)N(C)C(=O)C3(F)CCN(C(=O)C#CC(C)(C)N(C)C)CC3)C(=O)N3CCCC(N3)C(=O)OCC(C)(C)C2)C1
- viability, T/C (second compound 0.000949 µM, first compound 0.00316 µM): 73.8%
- viability, T/C (second compound 0.000949 µM, first compound 0.01 µM): 43%
- viability, T/C (second compound 0.000949 µM, first compound 0.0316 µM): 51.7%
- viability, T/C (second compound 0.000949 µM, first compound 0.1 µM): 39.8%
- viability, T/C (second compound 0.000949 µM, first compound 0.316 µM): 32.4%
- viability, T/C (second compound 0.000949 µM, first compound 1 µM): 25.3%
- viability, T/C (second compound 0.003 µM, first compound 0.00316 µM): 65.6%
- viability, T/C (second compound 0.003 µM, first compound 0.01 µM): 43.6%
- viability, T/C (second compound 0.003 µM, first compound 0.0316 µM): 42.4%
- viability, T/C (second compound 0.003 µM, first compound 0.1 µM): 26.9%
- viability, T/C (second compound 0.003 µM, first compound 0.316 µM): 24.5%
- viability, T/C (second compound 0.003 µM, first compound 1 µM): 17%
- viability, T/C (second compound 0.00949 µM, first compound 0.00316 µM): 49.1%
- viability, T/C (second compound 0.00949 µM, first compound 0.01 µM): 38.4%
- viability, T/C (second compound 0.00949 µM, first compound 0.0316 µM): 29.8%
- viability, T/C (second compound 0.00949 µM, first compound 0.1 µM): 21.9%
- viability, T/C (second compound 0.00949 µM, first compound 0.316 µM): 19.9%
- viability, T/C (second compound 0.00949 µM, first compound 1 µM): 18.1%
- viability, T/C (second compound 0.03 µM, first compound 0.00316 µM): 39%
- viability, T/C (second compound 0.03 µM, first compound 0.01 µM): 34.8%
- viability, T/C (second compound 0.03 µM, first compound 0.0316 µM): 26.4%
- viability, T/C (second compound 0.03 µM, first compound 0.1 µM): 20.7%
- viability, T/C (second compound 0.03 µM, first compound 0.316 µM): 20.6%
- viability, T/C (second compound 0.03 µM, first compound 1 µM): 17.3%
- viability, T/C (second compound 0.0949 µM, first compound 0.00316 µM): 32.4%
- viability, T/C (second compound 0.0949 µM, first compound 0.01 µM): 37.1%
- viability, T/C (second compound 0.0949 µM, first compound 0.0316 µM): 25.7%
- viability, T/C (second compound 0.0949 µM, first compound 0.1 µM): 21.2%
- viability, T/C (second compound 0.0949 µM, first compound 0.316 µM): 20.8%
- viability, T/C (second compound 0.0949 µM, first compound 1 µM): 16.8%
- viability, T/C (second compound 0.3 µM, first compound 0.00316 µM): 33.5%
- viability, T/C (second compound 0.3 µM, first compound 0.01 µM): 32.1%
- viability, T/C (second compound 0.3 µM, first compound 0.0316 µM): 26.6%
- viability, T/C (second compound 0.3 µM, first compound 0.1 µM): 19.1%
- viability, T/C (second compound 0.3 µM, first compound 0.316 µM): 19.5%
- viability, T/C (second compound 0.3 µM, first compound 1 µM): 15.6%
